From ChEMBL document CHEMBL1147372, “Bioactive metabolites from Sicilian marine fennel, Crithmum maritimum” (J Nat Prod, 1993)
Converted amounts (≈) assume the structure as drawn.

Experiment: Toxicity in Artemia salina after 24 hrs
Format: organism-based
Details: in vivo

| Compound | LC50 at 24 h |
| --- | --- |
| C=C[C@H](O)C#CC#CC/C=C\CCCCCCC [FALCARINOL] | 0.67 µg/mL (≈ 2.74 µM) |
| C=C[C@@H](O)C#CC#C[C@@H](O)/C=C\CCCCCCC [FALCARINDIOL] | 3.32 µg/mL (≈ 12.8 µM) |
| COc1cc(C=O)ccc1OC/C=C(\C)CCC=C(C)C [GERANYLOXYVANILLIN] | 85.8 µg/mL (≈ 298 µM) |
